Experimental data from ChEMBL document CHEMBL1201862, “PubChem BioAssay data set” (2004).
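Cultured in 96-well plates, cells were exposed to test compound for 48 hours across five concentrations. GI50 is the concentration that inhibits growth by half.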 Calls of active or inactive are those of the source. Rule as the data show it: active = GI50 up to about 1.1 µM and inactive = higher.

Assays:
Assay in all cases: NCI-60 cell line screen, 48 h
786-0 = tested on: 786-0
A498 = tested on: A498
A549 = tested on: A549
CCRF-CEM = tested on: CCRF-CEM
HCT-116 = tested on: HCT-116
HL-60 = tested on: HL-60
HOP-62 = tested on: HOP-62
Hs-578T = tested on: Hs-578T
IGROV-1 = tested on: IGROV-1
KM12 = tested on: KM12
LOX IMVI = tested on: LOX IMVI
M14 = tested on: M14
NCI-H226 = tested on: NCI-H226
NCI-H23 = tested on: NCI-H23
NCI-H522 = tested on: NCI-H522
SF-268 = tested on: SF-268
SF-295 = tested on: SF-295
SNB-19 = tested on: SNB-19
Malme-3M = tested on: Malme-3M

CCOc1ccc(-n2c(=O)n3c(Nc4ccc(Cl)cc4)nc4c(c(=O)n(C)c(=O)n4C)n3c2=O)cc1
GI50 (786-0): 36.6 µM (inactive)
GI50 (A498): 22.9 µM (inactive)
GI50 (A549): 75.5 µM (inactive)
GI50 (CCRF-CEM): 20.8 µM (inactive)
GI50 (HCT-116): 19.5 µM (inactive)
GI50 (HL-60): 22 µM (inactive)
GI50 (HOP-62): 71.1 µM (inactive)
GI50 (Hs-578T): 33 µM (inactive)
GI50 (IGROV-1): 37.4 µM (inactive)
GI50 (KM12): 16 µM (inactive)
GI50 (LOX IMVI): 20.4 µM (inactive)
GI50 (M14): > 10 µM (inactive)
GI50 (NCI-H226): 22.7 µM (inactive)
GI50 (NCI-H23): 27.5 µM (inactive)
GI50 (NCI-H522): 18.1 µM (inactive)
GI50 (SF-268): 34.8 µM (inactive)
GI50 (SF-295): 31.6 µM (inactive)
GI50 (SNB-19): > 100 µM (inactive)

O=C1COc2ccc([N+](=O)[O-])cc2C(=O)C1
GI50 (786-0): > 10 µM (inactive)
GI50 (A498): > 10 µM (inactive)
GI50 (A549): > 10 µM (inactive)
GI50 (CCRF-CEM): > 10 µM (inactive)
GI50 (HCT-116): > 10 µM (inactive)
GI50 (HL-60): > 10 µM (inactive)
GI50 (HOP-62): > 10 µM (inactive)
GI50 (Hs-578T): > 10 µM (inactive)
GI50 (IGROV-1): > 10 µM (inactive)
GI50 (KM12): > 10 µM (inactive)
GI50 (LOX IMVI): > 10 µM (inactive)
GI50 (M14): > 10 µM (inactive)
GI50 (Malme-3M): > 10 µM (inactive)
GI50 (NCI-H226): > 10 µM (inactive)
GI50 (NCI-H23): > 10 µM (inactive)
GI50 (SF-268): > 10 µM (inactive)
GI50 (SF-295): > 10 µM (inactive)
GI50 (SNB-19): > 10 µM (inactive)

COC(=O)C1=COC(C)C2C[n+]3ccc4c([nH]c5ccccc54)c3CC12 (stereo unspecified)
GI50 (786-0): > 100 µM (inactive)
GI50 (A498): > 100 µM (inactive)
GI50 (A549): > 100 µM (inactive)
GI50 (CCRF-CEM): > 100 µM (inactive)
GI50 (HCT-116): > 100 µM (inactive)
GI50 (HL-60): > 100 µM (inactive)
GI50 (HOP-62): > 100 µM (inactive)
GI50 (Hs-578T): > 100 µM (inactive)
GI50 (IGROV-1): 49.1 µM (inactive)
GI50 (KM12): > 100 µM (inactive)
GI50 (LOX IMVI): > 100 µM (inactive)
GI50 (M14): > 100 µM (inactive)
GI50 (NCI-H226): 44.9 µM (inactive)
GI50 (NCI-H23): > 100 µM (inactive)
GI50 (NCI-H522): 54.5 µM (inactive)
GI50 (SF-268): > 100 µM (inactive)
GI50 (SF-295): > 100 µM (inactive)
GI50 (SNB-19): > 100 µM (inactive)

Cc1nc(Cl)c(CBr)c(Cl)n1
GI50 (786-0): 0.275 µM (active)
GI50 (A498): 11.7 µM (inactive)
GI50 (A549): 6.3 µM (inactive)
GI50 (CCRF-CEM): 0.152 µM (active)
GI50 (HCT-116): 0.285 µM (active)
GI50 (HOP-62): 1.91 µM (inactive)
GI50 (Hs-578T): 1.49 µM (inactive)
GI50 (IGROV-1): 1.72 µM (inactive)
GI50 (KM12): 1.03 µM (active)
GI50 (LOX IMVI): 0.585 µM (active)
GI50 (M14): 0.427 µM (active)
GI50 (Malme-3M): 0.838 µM (active)
GI50 (NCI-H226): 2.7 µM (inactive)
GI50 (NCI-H23): 1.62 µM (inactive)
GI50 (NCI-H522): 0.518 µM (active)
GI50 (SF-268): 2.69 µM (inactive)
GI50 (SF-295): 8.45 µM (inactive)
GI50 (SNB-19): 3.68 µM (inactive)

CCOC(=O)Nc1sc2c(c1C#N)CCCC2
GI50 (786-0): > 100 µM (inactive)
GI50 (A498): 85.3 µM (inactive)
GI50 (CCRF-CEM): 64.9 µM (inactive)
GI50 (HCT-116): 74.1 µM (inactive)
GI50 (HL-60): 45.3 µM (inactive)
GI50 (HOP-62): > 100 µM (inactive)
GI50 (Hs-578T): 78.7 µM (inactive)
GI50 (IGROV-1): > 100 µM (inactive)
GI50 (KM12): 25.9 µM (inactive)
GI50 (LOX IMVI): 63.8 µM (inactive)
GI50 (Malme-3M): > 100 µM (inactive)
GI50 (NCI-H226): 89.5 µM (inactive)
GI50 (NCI-H23): > 100 µM (inactive)
GI50 (NCI-H522): 64 µM (inactive)
GI50 (SF-268): > 100 µM (inactive)
GI50 (SF-295): > 100 µM (inactive)
GI50 (SNB-19): 89.5 µM (inactive)

COc1ccc(OC)c(C2Cc3cnc4nc(N)nc(N)c4c3C2)c1 (stereo unspecified)
GI50 (786-0): 24.2 µM (inactive)
GI50 (A498): 16.9 µM (inactive)
GI50 (A549): 41.5 µM (inactive)
GI50 (CCRF-CEM): 24.4 µM (inactive)
GI50 (HCT-116): 19.8 µM (inactive)
GI50 (HL-60): 20.4 µM (inactive)
GI50 (HOP-62): 34.4 µM (inactive)
GI50 (Hs-578T): 30.6 µM (inactive)
GI50 (IGROV-1): 15.8 µM (inactive)
GI50 (KM12): 24.3 µM (inactive)
GI50 (LOX IMVI): 19.8 µM (inactive)
GI50 (M14): 36.1 µM (inactive)
GI50 (Malme-3M): 20.8 µM (inactive)
GI50 (NCI-H23): 32.2 µM (inactive)
GI50 (NCI-H522): 24.1 µM (inactive)
GI50 (SF-268): 34.2 µM (inactive)
GI50 (SF-295): 28.6 µM (inactive)
GI50 (SNB-19): 38.4 µM (inactive)

O=C1CN(c2ccccc2)C(=O)CN1CCN1CC(=O)N(c2ccccc2)CC1=O
GI50 (786-0): > 100 µM (inactive)
GI50 (A498): > 100 µM (inactive)
GI50 (A549): > 100 µM (inactive)
GI50 (HCT-116): > 100 µM (inactive)
GI50 (HL-60): > 100 µM (inactive)
GI50 (HOP-62): > 100 µM (inactive)
GI50 (Hs-578T): > 100 µM (inactive)
GI50 (IGROV-1): > 100 µM (inactive)
GI50 (KM12): > 100 µM (inactive)
GI50 (M14): > 100 µM (inactive)
GI50 (Malme-3M): > 100 µM (inactive)
GI50 (NCI-H23): > 100 µM (inactive)
GI50 (NCI-H522): > 100 µM (inactive)
GI50 (SF-268): > 100 µM (inactive)
GI50 (SF-295): > 100 µM (inactive)
GI50 (SNB-19): > 100 µM (inactive)

O=C(O)C1C(C(=O)O)C23CC2(C(=O)O)C2(C(=O)O)CCC3=C3CCCC312 (stereo unspecified)
GI50 (786-0): 10.3 µM (inactive)
GI50 (A498): 18.3 µM (inactive)
GI50 (A549): 6.34 µM (inactive)
GI50 (HCT-116): 6.85 µM (inactive)
GI50 (HL-60): 3.44 µM (inactive)
GI50 (HOP-62): 4.44 µM (inactive)
GI50 (Hs-578T): 2.67 µM (inactive)
GI50 (IGROV-1): 7.93 µM (inactive)
GI50 (KM12): 14 µM (inactive)
GI50 (LOX IMVI): 10.6 µM (inactive)
GI50 (M14): 6.84 µM (inactive)
GI50 (Malme-3M): 4.21 µM (inactive)
GI50 (NCI-H226): 10.4 µM (inactive)
GI50 (NCI-H23): 7.96 µM (inactive)
GI50 (NCI-H522): 3.73 µM (inactive)
GI50 (SF-268): 4.51 µM (inactive)
GI50 (SF-295): 4.13 µM (inactive)
GI50 (SNB-19): 7.93 µM (inactive)
